Experimental data published in ChEMBL document CHEMBL1268942, “Novel selective anti-androgens with a diphenylpentane skeleton” (Bioorg Med Chem Lett, 2010).

Tested on: HL-60
Assay: Selectivity index, ratio of EC50 for Vitamin-D activity at VDR receptor in human HL60 cells to EC50 for antiandrogen activity against androgen receptor in androgen-dependent mouse SC3 cells
Type: cell-based
Settings: not given

SMILES	Ratio EC50
CCC(CC)(c1ccc(OCC(=O)C(C)(C)CCCc2ccccc2)c(C)c1)c1ccc(OC[C@@H](O)CO)c(C)c1	> 3.1
CCC(CC)(c1ccc(OCC(O)C(C)(C)CCCc2ccccc2)c(C)c1)c1ccc(OC[C@@H](O)CO)c(C)c1 (stereo partly drawn)	28
CCC(CC)(c1ccc(OCC(O)C23CC4CC(CC(C4)C2)C3)c(C)c1)c1ccc(OC[C@@H](O)CO)c(C)c1 (stereo partly drawn)	< 2.2
CCC(CC)(c1ccc(OCC(=O)C(C)(C)CCc2ccccc2)c(C)c1)c1ccc(OC[C@@H](O)CO)c(C)c1	21
CCC(CC)(c1ccc(OCC(O)C(C)(C)CCc2ccccc2)c(C)c1)c1ccc(OC[C@@H](O)CO)c(C)c1 (stereo partly drawn)	8.1
CCC(CC)(c1ccc(OCC(=O)C(C)(C)Cc2ccccc2)c(C)c1)c1ccc(OC[C@@H](O)CO)c(C)c1	< 2.1
CCC(CC)(c1ccc(OCC(O)C(C)(C)Cc2ccccc2)c(C)c1)c1ccc(OC[C@@H](O)CO)c(C)c1 (stereo partly drawn)	6.5

Molecular target: T1, Androgen receptor (Homo sapiens, UniProt P10275)
T1 sequence (P10275 whole entry): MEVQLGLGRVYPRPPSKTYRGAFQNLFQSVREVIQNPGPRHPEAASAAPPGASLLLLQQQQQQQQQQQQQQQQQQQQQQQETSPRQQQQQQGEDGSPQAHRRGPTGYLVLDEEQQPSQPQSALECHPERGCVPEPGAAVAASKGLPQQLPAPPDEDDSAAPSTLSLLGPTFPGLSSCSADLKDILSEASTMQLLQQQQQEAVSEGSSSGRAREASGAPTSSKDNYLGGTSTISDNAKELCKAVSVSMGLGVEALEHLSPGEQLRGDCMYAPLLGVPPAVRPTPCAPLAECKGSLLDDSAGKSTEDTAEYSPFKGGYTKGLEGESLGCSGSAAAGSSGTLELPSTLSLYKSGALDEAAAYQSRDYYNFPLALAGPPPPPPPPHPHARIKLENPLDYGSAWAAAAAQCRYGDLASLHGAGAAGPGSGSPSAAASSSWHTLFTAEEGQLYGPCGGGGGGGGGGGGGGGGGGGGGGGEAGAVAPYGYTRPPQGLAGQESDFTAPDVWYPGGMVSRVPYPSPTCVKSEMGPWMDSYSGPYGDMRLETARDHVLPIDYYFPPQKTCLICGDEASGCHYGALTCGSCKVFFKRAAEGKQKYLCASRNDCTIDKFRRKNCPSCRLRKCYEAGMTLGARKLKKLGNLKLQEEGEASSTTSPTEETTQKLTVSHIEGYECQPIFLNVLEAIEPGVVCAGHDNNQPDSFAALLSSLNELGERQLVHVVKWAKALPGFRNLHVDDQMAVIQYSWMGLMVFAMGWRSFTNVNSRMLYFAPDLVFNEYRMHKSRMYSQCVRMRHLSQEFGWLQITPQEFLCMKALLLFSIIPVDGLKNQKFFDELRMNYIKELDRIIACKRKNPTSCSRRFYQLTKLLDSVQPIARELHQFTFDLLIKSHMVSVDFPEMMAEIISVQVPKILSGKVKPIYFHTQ
Assay: Binding affinity to androgen receptor
Settings: not given

SMILES	Ki [nM]
CCC(CC)(c1ccc(OC[C@@H](O)CO)c(C)c1)c1ccc(OC[C@H](O)C(C)(C)C)c(C)c1	1000
CCC(CC)(c1ccc(OCC(=O)C(C)(C)C)c(C)c1)c1ccc(OC[C@H](O)CO)c(C)c1	1100
CCC(CC)(c1ccc(OC[C@H](O)CO)c(C)c1)c1ccc(OC[C@H](O)C(C)(C)C)c(C)c1	1000
CCC(CC)(c1ccc(OC[C@@H](O)CO)c(C)c1)c1ccc(OC[C@@H](O)C(C)(C)C)c(C)c1	1100
CCC(CC)(c1ccc(OCC(=O)C(C)(C)C)c(C)c1)c1ccc(OC[C@@H](O)CO)c(C)c1	1800
CCC(CC)(c1ccc(OC[C@H](O)CO)c(C)c1)c1ccc(OC[C@@H](O)C(C)(C)C)c(C)c1	1100

Tested on: not listed separately
Assay: Toxicity in androgen-dependent mouse SC3 cells at 30 uM
Type: cell-based
Settings: sc-3, 30 µM

SMILES	Activity
CCC(CC)(c1ccc(OCC(O)C23CC4CC(CC(C4)C2)C3)c(C)c1)c1ccc(OC[C@@H](O)CO)c(C)c1 (stereo partly drawn)	Toxic
CCC(CC)(c1ccc(OCC(O)C(C)(C)CCCCc2ccccc2)c(C)c1)c1ccc(OC[C@@H](O)CO)c(C)c1 (stereo partly drawn)	Toxic
CCC(CC)(c1ccc(OCC(=O)C(C)(C)Cc2ccccc2)c(C)c1)c1ccc(OC[C@@H](O)CO)c(C)c1	Toxic
CCC(CC)(c1ccc(OCC(O)C(C)(C)Cc2ccc3ccccc3c2)c(C)c1)c1ccc(OC[C@@H](O)CO)c(C)c1 (stereo partly drawn)	Toxic
CCC(CC)(c1ccc(OC[C@@H](O)CO)c(C)c1)c1ccc(O[C@@H]2CN(Cc3ccccc3)C[C@@H]2O)c(C)c1	Toxic
